Experimental data: patent US10675317B2, “Use of ginseng extract, ginsenoside and ginsenoside derivative in the preparation of medicine or health care product for treating cytomegalovirus infection disorders” (priority 2015, dated 2020)
Like-named read-outs stand apart in the source and are kept apart here.

Legend:
Assay type in all cases: in vivo, Kunming mice
[1] = test system: HCMV infected mice; assay: Spleen and thymus gland indexes of HCMV infected mice; conditions: for Effect on weight of the immune organs of HCMV infected mice (in words): thymus glands and spleens; for Effect on weight of the immune organs of HCMV infected mice (in words) / Spleen indexes / Thymus gland indexes: day 21
Protocol: (§1) The mice were injected with HCMV10^−3 (0.1 ml/mouse) through the caudal vein of mouse tails; 0.9% normal saline is injected to the normal control group, 0.1 ml/piece; and intragastric administration is started according to the determined dosage on the second day of infection, with 21 days of medication.
(§2) During the experiment. Animals were weighed and the thymus and spleen were weighed on the 21st day of administration, and their indices (thymus index, spleen index, weight of thymus and spleen organs per 10 g body weight (mg)) were measured.
Thymus glands and spleens are important immune organs, with the organ indexes reflecting the strength of immune functions of organisms to a certain degree. The thymus glands have the main functions of generating T-lymphocytes and secreting thymosin, and mainly take part in cellular immunity; and abundant lymphocytes and macrophages are contained in the spleens. The weight of the thymus glands and the spleens is related to functions thereof as well as the quantity of immune cells therein, and the height depends on the proliferation degree of the lymphocytes therein.

[2] = test system: HCMV infected mice; assay: IL-2 level in serum of HCMV infected mice (ELISA kit); conditions: for IL-2 level compared with the positive drug control group (in words): ganciclovir 45.5 mg/kg/d as comparator; for IL-2 concentration: 21 days
Protocol: as §1
Selecting six mice in each group randomly for sampling, 40 min later after the last administration, picking eyeballs to take blood, and collecting the blood by a centrifugal tube Performing high-speed centrifugation for 5 min at 3000 r/min after blood coagulation, and taking the serum. The IL-2 in the serum is measured according to the manual of an ELISA kit.
1L-2, namely interleukin-2, is also named T cell growth factor (TCGF), is a cell factor with wide biological activity, which is generated by activated CD4+Th1 cells, and can promote the proliferation of Th0 and CTL, thus being an important factor for regulating and controlling immune responses.

[3] = test system: HCMV infected mice; assay: Survival rate and weight of HCMV infected mice; conditions: for Toxic symptoms, death and weight growth of treated HCMV infected mice (in words): 21 days of intragastric administration, compared with model group; for Average animal weight (g) Termination of treatment: HCMV infected mice; for Average animal weight (g) Termination of treatment / Animal number (n) Termination of treatment: 21 days; for Animal number (n) Termination of treatment: surviving of 10 HCMV infected mice
Protocol: 1.3 Virus standard strain HCMVADI69 and the proliferation of species are introduced in October 1999 from Virus Seed Room of Virus Institute in Chinese Academy of Preventive Medicine. […] HEL cultural supernatant reaching +++−++++ in the cell lesions is discarded and lightly washed for 3 times by PBS; double distilled water is added; freeze-thawing is performed for 3 times at −20° C.; vigorous blowing and beating are performed; 10,000 r/min centrifugation is performed at 4° C. for 20 min; and the supernatant is collected to obtain the standard virus strain.
as §1, §2
Recording the number of dead animals in the experimental process.
All the mice are subjected to the medicines continuously for 21 days in the whole experimental process.

[4] = test system: HCMV infected mice; conditions: for Level of serum hemolysin antibodies compared with the positive drug control group (in words): HCMV infected mice, ganciclovir 45.5 mg/kg/d as comparator; for Hemolysin (OD value): serum of HCMV infected mice, 540 nm, 21 days
Protocol: as §1
40 min later after the last administration, picking eyeballs to take blood, collecting serum, diluting the serum for 100 times with normal saline, uniformly mixing 1 mL of the diluted serum, 0.5 mL of 5% chicken erythrocyte suspension and 0.5 mL of 10% complement (guinea pig serum), incubating for 30 min In 37° C. incubator, setting 0° C. refrigerator for 30 min to stop the reaction. Centrifugating, taking the supernatant, and then measuring the optical density (OD value) at 540 nm by spectrophotometer.

[5] = high-dosage group 0.3 mg/kg/d intragastric
[6] = low-dosage group 0.012 mg/kg/d intragastric
[7] = medium-dosage group 0.06 mg/kg/d intragastric
[8] = HCMV infected mice, high-dosage group 0.3 mg/kg/d intragastric
[9] = HCMV infected mice, low-dosage group 0.012 mg/kg/d intragastric
[10] = HCMV infected mice, medium-dosage group 0.06 mg/kg/d intragastric

Compound	Effect on weight of the immune organs of HCMV infected mice (in words) [1]	IL-2 level compared with the model group (in words) [2]	IL-2 level compared with the positive drug control group (in words) [2]	IL-2 concentration [2, 5] [pg/mL]	IL-2 concentration [2, 6] [pg/mL]	IL-2 concentration [2, 7] [pg/mL]	Toxic symptoms, death and weight growth of treated HCMV infected mice (in words) [3]	Average animal weight (g) Termination of treatment [3, 5] [g]	Average animal weight (g) Termination of treatment [3, 6] [g]	Average animal weight (g) Termination of treatment [3, 7] [g]	Animal number (n) Termination of treatment [3, 5]	Animal number (n) Termination of treatment [3, 6]	Animal number (n) Termination of treatment [3, 7]	Level of serum hemolysin antibodies compared with the positive drug control group (in words) [4]	Hemolysin (OD value) [4, 5] [OD value]	Hemolysin (OD value) [4, 6] [OD value]	Hemolysin (OD value) [4, 7] [OD value]	further results
20(R)-ginsenoside Rg3 8-N-butyrate [Ginsenoside rg3 derivatives]	obvious weight increasing effect	higher than those of the model group	superior to that of the positive drug control group	29.32 ± 4.09	27.99 ± 5.38	28.62 ± 4.21	mild toxic symptom, less death and good weight growth	27.7 ± 1.84	26.4 ± 0.18	27.1 ± 0.49	9	6	7	superior to that of the positive drug control group	0.19 ± 0.11	0.17 ± 0.08	0.18 ± 0.07	
CC(C)=CCC[C@](C)(O)[C@H]1CC[C@]2(C)[C@@H]1[C@H](O)C[C@@H]1[C@@]3(C)CC[C@H](O[C@@H]4O[C@H](CO)[C@@H](O)[C@H](O)[C@H]4O[C@@H]4O[C@H](CO)[C@@H](O)[C@H](O)[C@H]4O)C(C)(C)[C@@H]3CC[C@]12C [Ginsenoside rg3, 20(R)-ginsenoside Rg3]	obvious weight increasing effect	higher than those of the model group	superior to that of the positive drug control group	28.64 ± 4.66	27.02 ± 6.39	27.19 ± 5.60	mild toxic symptom, less death and good weight growth	26.6 ± 1.83	25.1 ± 0.11	25.8 ± 0.54	8	6	6	superior to that of the positive drug control group	0.18 ± 0.03	0.15 ± 0.08	0.16 ± 0.05	Spleen indexes and thymus gland indexes compared with the model group (in words) ([1]; HCMV infected mice): significantly different from those of the model group; Spleen indexes [1, 8]: 0.061 ± 0.021; Thymus gland indexes [1, 8]: 0.031 ± 0.009; Spleen indexes [1, 9]: 0.056 ± 0.045; Thymus gland indexes [1, 9]: 0.027 ± 0.011; Spleen indexes [1, 10]: 0.057 ± 0.013; Thymus gland indexes [1, 10]: 0.029 ± 0.021
Nc1nc(O)c2ncn(COC(CO)CO)c2n1 [Positive drug control group, ganciclovir, reference compound]																		IL-2 concentration ([2]; ganciclovir 45.5 mg/kg/d): 24.54 ± 2.66 pg/mL; Average animal weight (g) Termination of treatment ([3]; ganciclovir 45.5 mg/kg/d): 26.9 ± 3.97 g; Survival number, weight growth and symptom expression compared with the test drug groups (in words) ([3]; ganciclovir 45.5 mg/kg/d): totally approximate to those of the large-dosage groups; Animal number (n) Termination of treatment ([3]; ganciclovir 45.5 mg/kg/d): 8; Hemolysin (OD value) ([4]; ganciclovir 45.5 mg/kg/d): 0.11 ± 0.04 OD value
